In paper PMC10255713, “Palm Fruit (Phoenix dactylifera L.) Pollen Extract Inhibits Cancer Cell and Enzyme Activities and DNA and Protein Damage” (Nutrients, 2023):

What was measured:
porcine α-amylase = target: T1, porcine α-amylase (Sus scrofa, UniProt P00690); experiment: Porcine α-amylase inhibition assay; format: biochemical
T1 sequence (P00690 16-511): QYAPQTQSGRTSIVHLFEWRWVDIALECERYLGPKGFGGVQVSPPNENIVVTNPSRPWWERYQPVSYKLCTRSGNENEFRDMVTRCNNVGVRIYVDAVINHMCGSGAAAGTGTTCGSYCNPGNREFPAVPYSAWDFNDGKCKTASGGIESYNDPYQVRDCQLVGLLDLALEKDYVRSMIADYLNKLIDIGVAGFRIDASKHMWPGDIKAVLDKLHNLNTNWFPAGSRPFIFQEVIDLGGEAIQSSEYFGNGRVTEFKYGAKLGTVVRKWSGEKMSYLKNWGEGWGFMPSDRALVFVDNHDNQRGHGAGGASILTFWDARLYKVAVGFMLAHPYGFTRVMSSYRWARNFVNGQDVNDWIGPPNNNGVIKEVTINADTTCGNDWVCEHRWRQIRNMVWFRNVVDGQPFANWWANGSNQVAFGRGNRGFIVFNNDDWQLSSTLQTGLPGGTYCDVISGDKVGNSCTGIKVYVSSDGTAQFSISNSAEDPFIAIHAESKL
Experimental: In this study, the inhibition activity of porcine α-amylase was evaluated following a previously reported method. […] The combination was incubated at 25 °C for a specific period, following which starch solution mixed with sodium phosphate (0.02 M pH 6.9) and sodium chloride (6 mM) was added and incubated at 25 °C for 10 min. After the incubation, 1 mL of dinitrosalicylic acid (color reagent) was included in the mixture at 100 °C for 10 min to stop the reaction, followed by chilling to 25 °C. The absorbance of the resulting combination was measured at 540 nm, after adding 1 mL of deionized water. The percentage of inhibition activity of porcine α-amylase was calculated using Equation (1).

mushroom tyrosinase = experiment: Tyrosinase inhibition assay; format: biochemical; conditions: for tyrosinase inhibition: highest concentration (5 mg/mL); for Tyrosinase inhibition activity IC50: mean ± SD, n = 3
Experimental: To assess the inhibition of tyrosinase activity, a previously reported method was followed in this study. […] The mixture was incubated at 37 °C for 10 min, and then 1 mL of 50 units/mL mushroom tyrosinase liquefied in 0.2 M, pH 6.8 phosphate buffer was added. The resulting mixture was incubated for an additional 10 min, and the absorbance was measured at 475 nm. Ethanol (50%) was used as a blank, while 1 mL of deionized water was a control. The percentage of tyrosinase inhibition activity was calculated using Equation (1).

[1] = DPPH free radical-scavenging assay; conditions: wet basis; mean ± SD, n = 3
Experimental: The percentage inhibition of these radical compounds was determined using Equation (1):% Inhibition DPPH^• = (Abs. control − Abs. sample)/(Abs. control) × 100(1)
The absorbance of the DPPH^• mixture without the test sample was considered as the Abs. control test. Absorbance was measured with a Varian CARY 50 Scan UV–VIS Spectrophotometer equipped with a Cary 50 Microplate Reader (Varian, Inc., Walnut Creek, CA, USA).

[2] = Ferric-reducing/antioxidant power (FRAP) assay; conditions: for maximum FRAP value: at 5 mg/mL; for FRAP antioxidant inhibition activity IC50: wet basis, mean ± SD, n = 3
Experimental: The FRAP reagent was prepared by mixing TPTZ (10 mM mixture) in 40 mM HCl, FeCl3 (20 mM), and acetate buffer (pH 3.6, 0.3 M) in a ratio of 1:1:10 (v/v/v). Next, 1 mL of the test sample was mixed with 2 mL of freshly prepared FRAP reagent, and the solutions were incubated for 30 min at 37 °C. The absorbance of the resulting mixture was measured at 593 nm. Deionized water was employed as a blank, and FeSO4 was used to establish the calibration curve. The FRAP values were expressed as µmol of Fe (II).

[3] = Total antioxidant capacity (TAC) phosphomolybdate assay; conditions: for maximum total antioxidant capacity value (absorbance at 695 nm): at 5 mg/mL; for Total Antioxidant Capacity IC50: wet basis, mean ± SD, n = 3
Experimental: Briefly, a reagent containing sodium phosphate (28 mM), sulfuric acid (0.6 M), and ammonium molybdate (4 mM) was added to 0.1 mL of the test samples, and the mixture was incubated at 95 °C for 90 min. After cooling, the absorbance of the mixture was measured at 695 nm. A higher absorbance value indicates a greater antioxidant capacity of the tested samples.

acetylcholinesterase = acetylcholinesterase (Homo sapiens, UniProt P22303); experiment: Acetylcholinesterase inhibition assay; format: biochemical
Experimental: The mixture was then incubated at room temperature for 15 min. After this, 475 µL of 3 mM DTNB solution and 75 µL of […] 15 mM were added to the mixture and incubated for an additional 30 min at room temperature. Finally, the absorbance of the mixture was measured at 405 nm, and the percentage of inhibition activity of acetylcholinesterase was calculated by Equation (1), as explained earlier.

[4] = test system: bovine serum albumin (BSA); experiment: Protein oxidation produced by AAPH (SDS-PAGE); conditions: AAPH 20 mM, 30 min
Experimental: The mixture was then incubated in a shaking water bath for 30 min at 37 °C. A control sample not including AAPH was also prepared. After incubation, the mixture was loaded onto an SDS-PAGE 10% gel under reduction conditions for 5 min at 100 °C. Images of the stained gel were captured using a Chemi-Doc MV gel documentation system (Bio-Rad, Hercules, CA, USA). The intensity of the bands was determined to quantify the aggregate of protein damage for all bands employing Image Lab 4.1 Software version 6.1.0 (Bio-Rad, Hercules, CA, USA). […] The use of SDS-PAGE and staining methods provides a visual representation of the extent of protein damage and allows for quantification of the results.

plasmid pBR322 DNA = experiment: Free radical-induced (H2O2 + UV) DNA damage assay; format: biochemical
Experimental: Once the reaction was completed, the tested samples were electrophoresed through a polysaccharide agarose 0.8% gel, and we stained the electrophoresed gel with ethidium bromide. The electrophoresed gel was analyzed, and we captured photographs of the electrophoresed gel using Image Lab 4.1 software, version 6.1.0. (Bio-Rad, Hercules, CA, USA).

[5] = ABTS free radical-scavenging assay; conditions: for ABTS maximum antioxidant activity: at 5 mg/mL
Experimental: The ABTS^• radicals are employed as a model system to assess the antioxidant activity of the compounds [33]. The percentage inhibition of the ABTS^• radicals by the test compounds was calculated using Equation 1, as described earlier.

[6] = Nitric oxide radical (NO) scavenging, Griess reaction; conditions: for NO-scavenging maximum inhibition: at 5 mg/mL; for Nitric Oxide scavenging IC50: wet basis, mean ± SD, n = 3
Experimental: The reaction mixture contained 2 mL of sodium nitroprusside (10 mM), 0.5 mL of saline phosphate buffer, and 0.5 mL of the test samples. The mixtures were incubated for 150 min at 25 °C. After incubation, 0.5 mL of the reaction mixture was combined with 1 mL of sulfanilic acid reagent (0.33% in 20% glacial acetic acid). Following a 5 min wait, 1 mL of naphthyl ethylene diamine dihydrochloride (0.1%) was added. The mixtures were left for 30 min at room temperature, and the absorbance was measured at 540 nm. The percentage of nitrites was calculated using Equation 1, as described earlier.

[7] = test system: Pseudomonas aeruginosa (ATCC 27853); experiment: Agar-well diffusion susceptibility test; format: cell-based; conditions: P. aeruginosa
Experimental: (§1) The pre-cultures of these pathogens were prepared through separate cultivation on Muller–Hinton broth at 37 °C for 24 h. […] After cultivation at 37 °C for 24 h, the developed inhibition zones (Halo zones) around wells indicated positive results. Amoxicillin (AX-25) and ampicillin (AM-10) were included as reference antibacterial drugs, while clotrimazole (CLT) and amphotericin-B (AmB) were applied as reference antifungal drugs.

[8] = test system: Escherichia coli (ATCC 25922); experiment: Agar-well diffusion susceptibility test; format: cell-based; conditions: E. coli
Experimental: as §1

[9] = test system: Streptococcus mutans (ATCC 25175); experiment: Agar-well diffusion susceptibility test; format: cell-based; conditions: S. mutans
Experimental: as §1

[10] = test system: Staphylococcus aureus (ATCC 25923); experiment: Agar-well diffusion susceptibility test; format: cell-based; conditions: S. aureus
Experimental: as §1

[11] = test system: Salmonella typhimurium (ATCC 14028); experiment: Agar-well diffusion susceptibility test; format: cell-based; conditions: S. typhimurium
Experimental: as §1

[12] = test system: Candida albicans (ATCC 10231); experiment: Agar-well diffusion susceptibility test; format: cell-based; conditions: C. albicans; Control 2 for yeast, 10 mg/disc
Experimental: as §1

[13] = highest concentration tested (5 mg/mL)

acetylcholinesterase, sequence (P22303 32-614, species assumed): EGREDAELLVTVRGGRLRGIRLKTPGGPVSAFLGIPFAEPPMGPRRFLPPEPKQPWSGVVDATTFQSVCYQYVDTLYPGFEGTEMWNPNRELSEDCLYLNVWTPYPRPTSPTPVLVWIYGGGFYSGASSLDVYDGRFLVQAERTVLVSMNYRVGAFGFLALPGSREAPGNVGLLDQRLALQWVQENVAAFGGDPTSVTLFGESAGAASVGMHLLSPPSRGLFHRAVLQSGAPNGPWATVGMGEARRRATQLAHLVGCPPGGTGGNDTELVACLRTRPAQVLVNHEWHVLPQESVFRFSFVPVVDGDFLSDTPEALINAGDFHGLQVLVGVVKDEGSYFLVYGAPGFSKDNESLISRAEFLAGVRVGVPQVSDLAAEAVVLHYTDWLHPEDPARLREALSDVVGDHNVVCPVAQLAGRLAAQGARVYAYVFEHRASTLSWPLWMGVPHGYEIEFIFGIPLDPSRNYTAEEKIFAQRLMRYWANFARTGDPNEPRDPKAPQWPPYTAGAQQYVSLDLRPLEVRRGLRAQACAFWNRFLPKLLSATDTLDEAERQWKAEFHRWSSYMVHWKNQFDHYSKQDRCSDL

## C[C@H]1O[C@H](O[C@H]2[C@H](O)[C@@H](O)[C@@H](O[C@H]3[C@H](O)[C@@H](O)C(O)O[C@@H]3CO)O[C@@H]2CO)[C@H](O)[C@@H](O)[C@@H]1N[C@H]1C=C(CO)[C@@H](O)[C@H](O)[C@H]1O (some centres unmarked) [Acarbose, acarbose]
Porcine α-amylase; [13]
  inhibition at 5000 µg/mL: 99.12 ± 0.1%

## O=c1cc(CO)occ1O [Kojic Acid, kojic acid]
Mushroom tyrosinase
  tyrosinase inhibition: 99.88 ± 0.11%

## C[C@@H]1O[C@@H](OC[C@H]2O[C@@H](Oc3c(-c4ccc(O)c(O)c4)oc4cc(O)cc(O)c4c3=O)[C@H](O)[C@@H](O)[C@@H]2O)[C@H](O)[C@H](O)[C@H]1O [Rutin, rutin]
[1]
  DPPH antioxidant inhibition activity IC50: 417.80 ± 5.78 mg/L
[2]
  maximum FRAP value: 10,644.00 ± 86.02 µmol of Fe (II)
  FRAP antioxidant inhibition activity IC50: 391.00 ± 7.46 mg/L
[3]
  maximum total antioxidant capacity value (absorbance at 695 nm): 1.57 ± 0.01
  Total Antioxidant Capacity IC50: 17,600 ± 41.64 µg/mL
acetylcholinesterase
  IC50: 1490 µM
acetylcholinesterase; highest concentration tested (5 mg/mL), read-out: AChE activity inhibition
  inhibition at 5000 µg/mL: 15.92 ± 0.13%
Porcine α-amylase
  IC50: 142 µM
Porcine α-amylase; [13]
  inhibition at 5000 µg/mL: 91.51 ± 0.51%
[4]
  BSA damage inhibition activity IC50: 3.68 ± 0.35 mg/L
Plasmid pBR322 DNA
  DNA damage inhibition activity IC50: 15.00 ± 0.22 mg/L
[5]
  ABTS maximum antioxidant activity: 92.69 ± 0.32%
[5]; wet basis, mean ± SD, n = 3
  ABTS antioxidant inhibition activity IC50: 6.50 ± 0.08 mg/L
[6]
  NO-scavenging maximum inhibition: 79.01 ± 0.07%
  Nitric Oxide scavenging IC50: 270.10 ± 3.51 mg/L
Mushroom tyrosinase
  tyrosinase inhibition: 55.00 ± 0.23%
  Tyrosinase inhibition activity IC50: 494.40 ± 27.86 mg/L

## O=C1O[C@H]([C@@H](O)CO)C(O)=C1O [VC, vitamin C]
[1]
  DPPH antioxidant inhibition activity IC50: 881.70 ± 13.38 mg/L
[2]
  maximum FRAP value: 10,233.67 ± 243.72 µmol of Fe (II)
  FRAP antioxidant inhibition activity IC50: 743.60 ± 30.11 mg/L
[3]
  maximum total antioxidant capacity value (absorbance at 695 nm): 0.041 ± 0.000
  Total Antioxidant Capacity IC50: 3005.00 ± 72.45 µg/mL
Porcine α-amylase; [13]
  α-amylase activity inhibition: 93.18 ± 0.18%
Porcine α-amylase; mean ± SD, n = 3
  Porcine α-amylase inhibition activity IC50: 97.62 ± 8.14 mg/L
[4]
  BSA damage inhibition activity IC50: 25.32 ± 1.29 mg/L
Plasmid pBR322 DNA
  DNA damage inhibition activity IC50: 505.00 ± 21.63 mg/L
[5]
  ABTS maximum antioxidant activity: 90.13 ± 0.04%
[6]
  NO-scavenging maximum inhibition: 56.55 ± 1.52%
  Nitric Oxide scavenging IC50: 2710.00 ± 13.35 mg/L
Mushroom tyrosinase
  tyrosinase inhibition: 98.72 ± 0.15%
  Tyrosinase inhibition activity IC50: 1881.00 ± 48.56 mg/L

## CC1(C)S[C@@H]2[C@H](NC(=O)[C@H](N)c3ccc(O)cc3)C(=O)N2[C@H]1C(=O)O [amoxicillin]
[7]; Control 1, 25 mg/disc
  inhibition-zone diameter: 28.00 ± 2.76 mm
[8]; Control 1, 25 mg/disc
  inhibition-zone diameter: 25.00 ± 2.40 mm
[9]; Control 1, 25 mg/disc
  inhibition-zone diameter: 37.00 ± 2.80 mm
[10]; Control 1, 25 mg/disc
  inhibition-zone diameter: −ve
[11]; Control 1, 25 mg/disc
  inhibition-zone diameter: 30.00 ± 1.30 mm

## C[C@@H]1[C@H](O)[C@@H](C)/C=C/C=C/C=C/C=C/C=C/C=C/C=C/[C@H](O[C@@H]2O[C@H](C)[C@@H](O)[C@H](N)[C@@H]2O)C[C@@H]2O[C@](O)(C[C@@H](O)C[C@@H](O)[C@H](O)CC[C@@H](O)C[C@@H](O)CC(=O)O[C@H]1C)C[C@H](O)[C@H]2C(=O)O [amphotericin-B]
[12]
  inhibition-zone diameter: 25.50 ± 2.30 mm

## CC1(C)S[C@@H]2[C@H](NC(=O)[C@H](N)c3ccccc3)C(=O)N2[C@H]1C(=O)O [ampicillin]
[7]; Control 2, 10 mg/disc
  inhibition-zone diameter: 13.20 ± 0.68 mm
[8]; Control 2, 10 mg/disc
  inhibition-zone diameter: −ve
[9]; Control 2, 10 mg/disc
  inhibition-zone diameter: 18.00 ± 1.48 mm
[10]; Control 2, 10 mg/disc
  inhibition-zone diameter: −ve
[11]; Control 2, 10 mg/disc
  inhibition-zone diameter: 10.00 ± 0.80 mm
